The nature of this data set: OliGreen assay: percentage of oligo that is encapsulated. Format: physicochemical. The conditions noted are these: for Encap Oligo %: Ex. 2 procedure. How it is done:
The Oligreen Assay was used to quantify the amount of oligonucleotide loaded into the vesicles. A fluorescent dye binding assay for quantifying single stranded oligonucleotide in aqueous solutions was established using a Biolumin™ 960 fluorescent plate reader (Molecular Dynamics, Sunnyvale, Calif., USA). Briefly, aliquots of encapsulated oligonucleotide were diluted in HEPES buffered saline (HBS; 20 mM HEPES, 145 mM NaCl, pH 7.5). A 10 μL aliquot of the diluted sample was added to 100 μL of a 1:200 dilution of Oligreen™ reagent, both with and without 0.1% of Triton X-100 detergent. An oligo standard curve was prepared with and without 0.1% Triton X-100 for quantification of encapsulated oligo. Fluorescence of the Oligreen™-antisense complex was measured using excitation and emission wavelengths of 485 nm and 520 nm, respectively. Surface associated antisense was determined by comparing the fluorescence measurements in the absence and presence of detergent.
[formula] The percentage of oligo that is encapsulated (i.e., incorporated in bilayers or entrapped in the interior of the lipid particle) was determined with the OliGreen assay described above.

As to “5′-TAACGTTGAGGGGCAT-3′ (listed as DNA, chemistry not given here) [INX-6295]”, the “Encap Oligo %” value reads like this: (initial drug/lipid ratio 0.1) “≧90%”; (initial drug/lipid ratio 0.2) “≧80%”. In addition, the “Encapsulated Oligo %” value runs as follows: (citrate buffer 50 mM, initial drug/lipid 0.1) 94%; (citrate buffer 100 mM, initial drug/lipid 0.1) 90%; (citrate buffer 200 mM, initial drug/lipid 0.1) 91%; (citrate buffer 300 mM, initial drug/lipid 0.1) 92%; (incubation time 0.5 hr at 40° C.) 92%; (incubation time 1 hr at 40° C.) 94%. Further, the “Encapsulated Oligo %” value (incubation time 2 hr at 40° C.) is reported as 95%. Also, the “Encaps Oligo %” value runs as follows: (incubation temp 40 °C, 1 hour) 91%; (incubation temp 60 °C, 1 hour) 83%; (incubation temp RT(20–22) °C, 1 hour) 90%; (initial EtOH 33%, initial drug/lipid 0.2) 88%; (initial EtOH 36%, initial drug/lipid 0.1) 85–89%; (initial EtOH 40%, initial drug/lipid 0.2) 82%. The “Encaps Oligo %” value is on record as 84–89% (initial EtOH 43%, initial drug/lipid 0.1); 62% (initial EtOH 43%, initial drug/lipid 0.2); 90–92% (initial EtOH 45%, initial drug/lipid 0.1); 90% (oligo stock 10 mg/ml, initial drug/lipid 0.1); 88% (oligo stock 20 mg/ml, initial drug/lipid 0.1); 90% (oligo stock 30 mg/ml, initial drug/lipid 0.1). Moreover, the “Encaps Oligo %” value (oligo stock 40–50 mg/ml, initial drug/lipid 0.1) is on record as 88–94%.

The values are drawn from patent US7094423B1, “Methods for preparation of lipid-encapsulated therapeutic agents” (INEX Pharmaceuticals Corp., priority 1999, dated 2006).
